What all share (assay): NCI anticancer screen, dose series, 48 h
The subject of test [1] is SK-MEL-5.
In test [2] the test system is NCI-H522.
Test [3] concerns RPMI-8226.
For test [4], the system named is HCT-15.
Test [5] relates to OVCAR-4.
Test [6] relates to SNB-19.
Test [7] has as its system BT-549.
Test [8] has as its system HL-60.
For test [9], the system named is T47D.
For test [10], the system named is OVCAR-3.
The subject of test [11] is SK-MEL-28.
The subject of test [12] is ACHN.
The subject of test [13] is KM12.
The test system of test [14] is HOP-62.
Test [15] has as its system UACC-62.
Test [16] relates to CAKI-1.
In test [17] the test system is TK-10.
Test [18] relates to NCI-H226.
Test [19] deals with MDA-MB-231.
Test [20] deals with RXF 393.

Here are results for four compounds from ChEMBL document CHEMBL1201862, “PubChem BioAssay data set” (2004).

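Values below derive from 48-hour exposures of cells grown in 96-well plates, with endpoints linearly interpolated between the two concentrations bracketing the appropriate inhibition level. GI50 marks 50% less growth.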 Activity calls are given as the source filed them. Cut-off read from the data, not from the text of the source: active = GI50 up to about 1.1 µM and inactive = higher.

As to `CN1CCN(Cc2ccc(C(=S)Nc3ccccc3)s2)CC1`, the GI50 in test [1] was 17.6 µM (inactive); in test [2] it was 31 µM (inactive); in [3], 28.6 µM (inactive); in test [4] it was 21 µM; in test [5] it was 54.1 µM (inactive); in test [6], > 100 µM (inactive). Besides, the GI50 in test [7] is 15.9 µM (inactive); in test [8] it was 19.9 µM (inactive); in [9] it was 59.2 µM (inactive); in [10], > 100 µM (inactive); in test [11], 15.5 µM (inactive); in test [12], 92 µM (inactive). The GI50 in test [13] was 36.3 µM (inactive); in test [14] it was 93.8 µM (inactive); in test [15], 20.2 µM (inactive); in [16], > 100 µM (inactive).

In the case of `COc1ccc(NCC(=O)Nn2c(C)nc3ccc(S(=O)(=O)Nc4ccc(OC)cc4)cc3c2=O)cc1`, the GI50 was > 100 µM (inactive) in test [2]; > 100 µM (inactive) in test [17]; > 100 µM (inactive) in test [3]; greater than 100 µM in [4]; > 100 µM (inactive) in [5]; > 100 µM (inactive) in [6]. Also, the GI50 in test [18], in [19], in test [7], in test [8], in test [10] and in test [11] was > 100 µM (inactive) in each case. The GI50 in test [12], in test [13], in test [14], in test [15] and in test [16] was > 100 µM (inactive) each time.

As to `COc1ccc(CN2C[C@H]3[C@@H](CC(=O)O[C@H]3C)CC2=O)cc1`, the GI50 in [1] is > 100 µM (inactive); in [2], > 100 µM (inactive); in test [3], > 100 µM (inactive); in [4], greater than 100 µM; in [5], > 100 µM (inactive); in test [20] it was > 100 µM (inactive). The GI50 in [6], in test [19], in test [7], in test [10], in test [11] and in [12] was > 100 µM (inactive) throughout. The GI50 in test [13], in [14], in test [15] and in test [16] was > 100 µM (inactive) in each case.

On to `Cc1ccc(S(=O)(=O)Nn2c(-c3ccccc3)c(C#N)c(-c3ccc([N+](=O)[O-])cc3)c(C#N)c2=O)cc1`, for which the GI50 in test [1] was 97.1 µM (inactive); in test [2] it was 13.3 µM (inactive); in test [17] it was > 100 µM (inactive); in [3], 25.8 µM (inactive); in [4] it was greater than 100 µM; in test [5], > 100 µM (inactive). For the same compound, the GI50 in test [20] is > 100 µM (inactive); in test [6], 40.8 µM (inactive); in test [18], > 100 µM (inactive); in [19], > 100 µM (inactive); in test [7] it was > 100 µM (inactive); in [8] it was 39.4 µM (inactive). In addition, the GI50 in test [11], in [12], in test [13], in test [14], in [15] and in test [16] was > 100 µM (inactive) in each case.
